Results reported in ChEMBL document CHEMBL3994623, “The synthesis and antistaphylococcal activity of 9, 13-disubstituted berberine derivatives” (Eur J Med Chem, 2017).
In brackets after ≈: the same amount, converted by molar mass.

Columns and labels:
Staphylococcus aureus [1] = assay: Antistaphylococcal activity against erythromycin-resistant Staphylococcus aureus NRS-70 after 18 hrs by two fold serial dilution method; assay type: functional; details: NRS-70, 18 h
Staphylococcus aureus [2] = assay: Antistaphylococcal activity against linezolid-resistant Staphylococcus aureus NRS-271 containing phage type E-MRSA after 18 hrs by two fold serial dilution method; assay type: functional; details: NRS-271, 18 h
Staphylococcus aureus [3] = assay: Antistaphylococcal activity against gentamicin-resistant Staphylococcus aureus NRS-108 after 18 hrs by two fold serial dilution method; assay type: functional; details: NRS-108, 18 h
Staphylococcus aureus [4] = assay: Antistaphylococcal activity against Staphylococcus aureus Newman after 18 hrs by two fold serial dilution method; assay type: functional
Staphylococcus aureus [5] = assay: Antistaphylococcal activity against oxacillin/tetracycline-resistant Staphylococcus aureus NRS-100 after 18 hrs by two fold serial dilution method; assay type: functional; details: NRS-100, 18 h
Staphylococcus aureus [6] = assay: Antistaphylococcal activity against aminoglycosides/tetracycline-resistant Staphylococcus aureus NRS-1 after 18 hrs by two fold serial dilution method; assay type: functional; details: NRS-1, 18 h
[7] = Cytotoxicity against HAF assessed as decrease in cell viability after 24 hrs by MTS assay; assay type: cell-based; details: Homo sapiens
[8] = Cytotoxicity against HAF assessed as effect on cell morphology at […] ug/ml after 24 hrs by hematoxylin-eosin staining-based contrast microscopic method; details: human
[9] = Cytotoxicity against HAF assessed as effect on cell morphology at 12.5 ug/ml after 24 hrs by hematoxylin-eosin staining-based contrast microscopic method; details: human
Staphylococcus aureus [10] = assay: Potency index, ratio of totarol MIC to test compound MIC for linezolid-resistant Staphylococcus aureus NRS-271 containing phage type E-MRSA; assay type: functional
Staphylococcus aureus [11] = assay: Potency index, ratio of totarol MIC to test compound MIC for oxacillin/tetracycline-resistant Staphylococcus aureus NRS-100; assay type: functional
Staphylococcus aureus [12] = assay: Potency index, ratio of totarol MIC to test compound MIC for erythromycin-resistant Staphylococcus aureus NRS-70; assay type: functional
Staphylococcus aureus [13] = assay: Potency index, ratio of totarol MIC to test compound MIC for aminoglycosides/tetracycline-resistant Staphylococcus aureus NRS-1; assay type: functional
Staphylococcus aureus [14] = assay: Potency index, ratio of totarol MIC to test compound MIC for gentamicin-resistant Staphylococcus aureus NRS-108

| SMILES | MIC (Staphylococcus aureus [1]) [µg/mL] | MIC (Staphylococcus aureus [2]) [µg/mL] | MIC (Staphylococcus aureus [3]) [µg/mL] | MIC (Staphylococcus aureus [4]) [µg/mL] | MIC (Staphylococcus aureus [5]) [µg/mL] | MIC (Staphylococcus aureus [6]) [µg/mL] | IC50 [7] [µg/mL] | other results |
| --- | --- | --- | --- | --- | --- | --- | --- | --- |
| CCCCNc1c(OC)ccc2c(Cc3ccc(C)cc3)c3[n+](cc12)CCc1cc2c(cc1-3)OCO2.[Br-] | 1.56 | 1.56 | 3.13 | 1.56 | 1.56 | 1.56 | – | – |
| CN[C@H](CC(C)C)C(=O)N[C@H]1C(=O)N[C@@H](CC(N)=O)C(=O)N[C@H]2C(=O)N[C@H]3C(=O)N[C@H](C(=O)N[C@H](C(=O)O)c4cc(O)cc(O)c4-c4cc3ccc4O)[C@H](O)c3ccc(c(Cl)c3)Oc3cc2cc(c3O[C@@H]2O[C@H](CO)[C@@H](O)[C@H](O)[C@H]2O[C@H]2C[C@](C)(N)[C@H](O)[C@H](C)O2)Oc2ccc(cc2Cl)[C@H]1O [VANCOMYCIN] | 0.39 (≈ 0.269 µM) | 0.39 (≈ 0.269 µM) | 0.39 (≈ 0.269 µM) | 0.78 (≈ 0.538 µM) | 0.78 (≈ 0.538 µM) | 1.56 (≈ 1.08 µM) | – | – |
| CCCCCNc1c(OC)ccc2c(CCCN3CCOCC3)c3[n+](cc12)CCc1cc2c(cc1-3)OCO2.[I-] | – | – | – | > 25 | – | – | – | – |
| CCCCNc1c(OC)ccc2c(Cc3ccc(F)cc3)c3[n+](cc12)CCc1cc2c(cc1-3)OCO2.[Br-] | 3.13 | 3.13 | 3.13 | 2.5 | 6.25 | 6.25 | – | – |
| CCCCCNc1c(OC)ccc2c(Cc3ccc(C)c(C)c3)c3[n+](cc12)CCc1cc2c(cc1-3)OCO2.[Br-] | 1.56 | 1.56 | 1.56 | 1.25 | 1.56 | 3.13 | 12.5 | – |
| CCCCCCNc1c(OC)ccc2c(Cc3ccc(OC)cc3)c3[n+](cc12)CCc1cc2c(cc1-3)OCO2.[Br-] | 3.13 | 6.25 | 3.13 | 2.5 | 3.13 | 6.25 | – | – |
| CCCCCNc1c(OC)ccc2cc3[n+](cc12)CCc1cc2c(cc1-3)OCO2.[Cl-] | – | – | – | 3.13 | – | – | – | – |
| CCCCCNc1c(OC)ccc2c(CC(=O)OCC)c3[n+](cc12)CCc1cc2c(cc1-3)OCO2.[Br-] | – | – | – | 12.5 | – | – | – | – |
| CCCCCCNc1c(OC)ccc2c(Cc3ccccc3)c3[n+](cc12)CCc1cc2c(cc1-3)OCO2.[Br-] | 1.56 | 3.13 | 3.13 | 2.5 | 3.13 | 1.56 | – | – |
| CCCCNc1c(OC)ccc2c(Cc3ccc(OC)cc3)c3[n+](cc12)CCc1cc2c(cc1-3)OCO2.[Br-] | 3.13 | 6.25 | 3.13 | 2.5 | 6.25 | 6.25 | – | – |
| CCCCCNc1c(OC)ccc2c(Cc3ccc(O)cc3)c3[n+](cc12)CCc1cc2c(cc1-3)OCO2.[Br-] | 1.56 | 3.13 | 3.13 | 2.5 | 3.13 | 6.25 | > 20 | Activity [8]: Non-Toxic; Activity [9]: Toxic |
| CCCCCNc1c(OC)ccc2c(Cc3ccc(F)cc3)c3[n+](cc12)CCc1cc2c(cc1-3)OCO2.[Br-] | 1.56 | 1.56 | 1.56 | 1.25 | 3.13 | 3.13 | 12.7 | – |
| COc1ccc2c(Cc3ccccc3)c3[n+](cc2c1OC)CCc1cc2c(cc1-3)OCO2.[Br-] | – | – | – | 6.25 | – | – | – | – |
| CCCCCCNc1c(OC)ccc2c(Cc3ccc(C)cc3)c3[n+](cc12)CCc1cc2c(cc1-3)OCO2.[Br-] | 1.56 | 1.56 | 1.56 | 1.56 | 1.56 | 1.56 | 12.8 | Activity [8]: Non-Toxic; Ratio (Staphylococcus aureus [10]): 1 - 4; Activity [9]: Toxic; Ratio (Staphylococcus aureus [11]): 1 - 4; Ratio (Staphylococcus aureus [12]): 1 - 4; Ratio (Staphylococcus aureus [13]): 1 - 4; Ratio (Staphylococcus aureus [14]): 1 - 4 |
| CCCCCNc1c(OC)ccc2c(Cc3cccc(C)c3)c3[n+](cc12)CCc1cc2c(cc1-3)OCO2.[Br-] | 1.56 | 1.56 | 1.56 | 1.25 | 3.13 | 3.13 | 12.7 | – |
| CCCCCNc1c(OC)ccc2c(CC(=O)O)c3[n+](cc12)CCc1cc2c(cc1-3)OCO2.[Br-] | – | – | – | 25 | – | – | – | – |
| COc1ccc2c(Cc3ccc(C)cc3)c3[n+](cc2c1NCCCO)CCc1cc2c(cc1-3)OCO2.[Br-] | – | – | – | 6.25 | – | – | – | – |
| COc1ccc2c(Cc3ccc(C)cc3)c3[n+](cc2c1OC)CCc1cc2c(cc1-3)OCO2.[Br-] | – | – | – | 6.25 | – | – | – | – |
| CCCCCNc1c(OC)ccc2c(Cc3ccccn3)c3[n+](cc12)CCc1cc2c(cc1-3)OCO2.[Br-] | – | – | – | 12.5 | – | – | – | – |
| CCCCCNc1c(OC)ccc2c(Cc3ccc(OC)cc3)c3[n+](cc12)CCc1cc2c(cc1-3)OCO2.[Br-] | 1.56 | 1.56 | 1.56 | 1.25 | 3.13 | 1.56 | 13.8 | – |
| CCCCCCNc1c(OC)ccc2c(Cc3ccc(F)cc3)c3[n+](cc12)CCc1cc2c(cc1-3)OCO2.[Br-] | 3.13 | 3.13 | 3.13 | 1.56 | 6.25 | 3.13 | – | – |
| CCCCCNc1c(OC)ccc2c(Cc3ccc(C)cc3)c3[n+](cc12)CCc1cc2c(cc1-3)OCO2.[Br-] | 1.56 | 1.56 | 1.56 | 0.78 | 0.78 | 1.56 | 12.5 | Activity [8]: Non-Toxic; Ratio (Staphylococcus aureus [10]): 1 - 4; Activity [9]: Toxic; Ratio (Staphylococcus aureus [11]): 1 - 4; Ratio (Staphylococcus aureus [12]): 1 - 4; Ratio (Staphylococcus aureus [13]): 1 - 4; Ratio (Staphylococcus aureus [14]): 1 - 4 |
| CCCCNc1c(OC)ccc2c(Cc3ccccc3)c3[n+](cc12)CCc1cc2c(cc1-3)OCO2.[Br-] | – | – | – | 3.13 | – | – | > 20 | – |
| CCCCCNc1c(OC)ccc2c(Cc3ccccc3)c3[n+](cc12)CCc1cc2c(cc1-3)OCO2.[Br-] | 1.56 | 1.56 | 1.56 | 1.56 | 1.56 | 3.13 | 15.8 | – |
| CCCCCNc1c(OC)ccc2c(Cc3ccccc3C)c3[n+](cc12)CCc1cc2c(cc1-3)OCO2.[Br-] | 1.56 | 3.13 | 1.56 | 1.25 | 3.13 | 3.13 | 13 | – |
| COc1ccc2c(Cc3ccc(C)cc3)c3[n+](cc2c1NCCCc1ccccc1)CCc1cc2c(cc1-3)OCO2.[Br-] | – | – | – | 3.13 | – | – | – | – |
| CCCCCNc1c(OC)ccc2c(Cc3cccs3)c3[n+](cc12)CCc1cc2c(cc1-3)OCO2.[Br-] | – | – | – | 3.13 | – | – | – | – |
| CCCCCNc1c(OC)ccc2c(CCCN3CCCC3)c3[n+](cc12)CCc1cc2c(cc1-3)OCO2.[I-] | – | – | – | > 25 | – | – | – | – |
| COc1ccc2cc3[n+](cc2c1OC)CCc1cc2c(cc1-3)OCO2 [BERBERINE] | – | – | – | > 25 | – | – | – | – |
| CCCCCNc1c(OC)ccc2c(CCCN3CCCCC3)c3[n+](cc12)CCc1cc2c(cc1-3)OCO2.[I-] | – | – | – | > 25 | – | – | – | – |
